The values that follow come from patent US11149037B2, “Pyrazole MAGL inhibitors” (H. Lundbeck A/S, priority 2017, dated 2021).

In assay [1] the target is T1, MAGL (Mus musculus (Mouse), UniProt O35678). Briefly: In vitro competitive activity-based protein profiling, mouse proteomes (brain membrane fraction or cell lysates). It counts as biochemical. The following applies: mouse proteome, read-out: MAGL % inh. 1 μM (mouse). The method, boiled down:
(§1)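 Activity of MAGL and FAAH was quantified from fluorescent gel band intensities. Beforehand, inhibitors at several concentrations competed against subsequent probe labelling (FP-Rh, JW912 or HT-01) in species-matched proteomes, each step 30 min at 37° C.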

Assay [2] has as its target T2, FAAH (Mus musculus (Mouse), UniProt O08914). The assay is described as above. It is filed as biochemical. The following applies: mouse proteome, read-out: FAAH % inh. 1 μM (mouse). The method, boiled down: as §1
In assay [3] the target is MAGL (Homo sapiens (Human), UniProt Q99685). Briefly: In vitro competitive activity-based protein profiling, human proteomes (prefrontal cortex or PC3 cell membrane fractions). It counts as biochemical. The following applies: human proteome; for inhibition at 1 µM: read-out: MAGL % inh. 1 μM (human). The method, boiled down:
as §1

The target of assay [4] is FAAH (Homo sapiens (Human), UniProt O00519). The assay is described as above. It counts as biochemical. The following applies: human proteome; for inhibition at 1 µM: read-out: FAAH % inh. 1 μM (human). The method, boiled down:
as §1

Assay [5] deals with T1, MAGL. Nature of the assay: Mouse brain proteomes from inhibitor treated mice (oral gavage, sacrificed 4 h after administration). It counts as in vivo. The following applies: 5 mg/kg oral gavage. How it is done: (§2) Preparation of Mouse Brain Proteomes from Inhibitor Treated Mice.
(§3) Inhibitors were administered to wild-type C57B1/6J by oral gavage in a vehicle of polyethylene glycol. Each animal was sacrificed 4 h following administration and brain proteomes were prepared and analyzed according to previously established methods (See Niphakis, M. J., et al. (2011) ACS Chem. Neurosci. and Long, J. Z., et al. Nat. Chem. Biol. 5:37-44).

The target in assay [6] is T2, FAAH. The assay is described as above. It is filed as in vivo. The following applies: 5 mg/kg oral gavage. How it is done: as §2, §3

T2 sequence (O08914 whole entry): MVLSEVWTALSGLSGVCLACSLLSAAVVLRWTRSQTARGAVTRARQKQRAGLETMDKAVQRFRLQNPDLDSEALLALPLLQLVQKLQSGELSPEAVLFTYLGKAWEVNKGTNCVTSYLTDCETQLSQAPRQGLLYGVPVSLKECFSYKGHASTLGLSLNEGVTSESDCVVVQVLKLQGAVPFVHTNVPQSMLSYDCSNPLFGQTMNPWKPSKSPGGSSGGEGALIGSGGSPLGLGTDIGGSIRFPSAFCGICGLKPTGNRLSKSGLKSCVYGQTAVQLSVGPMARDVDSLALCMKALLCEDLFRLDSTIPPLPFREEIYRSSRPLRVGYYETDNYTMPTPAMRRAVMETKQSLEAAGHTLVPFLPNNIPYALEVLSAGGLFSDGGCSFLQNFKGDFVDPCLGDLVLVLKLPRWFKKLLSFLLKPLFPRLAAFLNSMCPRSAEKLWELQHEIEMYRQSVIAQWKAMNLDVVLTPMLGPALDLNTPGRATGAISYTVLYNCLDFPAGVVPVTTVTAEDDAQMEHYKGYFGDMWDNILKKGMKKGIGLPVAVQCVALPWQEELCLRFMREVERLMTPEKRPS
FAAH (Homo sapiens (Human), UniProt O00519), sequence (O00519 whole entry): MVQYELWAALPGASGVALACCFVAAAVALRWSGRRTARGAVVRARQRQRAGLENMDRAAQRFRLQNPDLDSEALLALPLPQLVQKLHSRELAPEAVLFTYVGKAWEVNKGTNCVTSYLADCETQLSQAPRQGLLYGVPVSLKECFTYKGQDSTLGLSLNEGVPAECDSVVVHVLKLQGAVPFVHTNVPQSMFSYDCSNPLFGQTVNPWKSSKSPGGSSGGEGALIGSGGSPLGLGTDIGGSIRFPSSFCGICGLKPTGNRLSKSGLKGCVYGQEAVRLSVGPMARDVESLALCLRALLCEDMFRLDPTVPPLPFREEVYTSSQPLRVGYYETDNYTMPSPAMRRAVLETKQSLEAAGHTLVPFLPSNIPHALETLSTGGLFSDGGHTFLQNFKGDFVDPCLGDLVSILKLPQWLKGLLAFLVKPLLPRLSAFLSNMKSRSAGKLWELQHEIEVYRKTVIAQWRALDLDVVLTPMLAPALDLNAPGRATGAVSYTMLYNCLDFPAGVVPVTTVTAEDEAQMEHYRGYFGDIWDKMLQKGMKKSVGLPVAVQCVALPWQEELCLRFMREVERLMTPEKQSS
MAGL (Homo sapiens (Human), UniProt Q99685), sequence (Q99685 whole entry): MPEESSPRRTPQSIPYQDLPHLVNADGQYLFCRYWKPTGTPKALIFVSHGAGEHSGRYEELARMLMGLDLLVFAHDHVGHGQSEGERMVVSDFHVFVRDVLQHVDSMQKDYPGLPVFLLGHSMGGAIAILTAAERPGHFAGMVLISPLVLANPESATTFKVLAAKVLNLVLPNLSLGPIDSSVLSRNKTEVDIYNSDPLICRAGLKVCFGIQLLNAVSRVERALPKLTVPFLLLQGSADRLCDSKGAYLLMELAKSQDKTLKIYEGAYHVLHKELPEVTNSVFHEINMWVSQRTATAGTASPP
T1 sequence (O35678 whole entry): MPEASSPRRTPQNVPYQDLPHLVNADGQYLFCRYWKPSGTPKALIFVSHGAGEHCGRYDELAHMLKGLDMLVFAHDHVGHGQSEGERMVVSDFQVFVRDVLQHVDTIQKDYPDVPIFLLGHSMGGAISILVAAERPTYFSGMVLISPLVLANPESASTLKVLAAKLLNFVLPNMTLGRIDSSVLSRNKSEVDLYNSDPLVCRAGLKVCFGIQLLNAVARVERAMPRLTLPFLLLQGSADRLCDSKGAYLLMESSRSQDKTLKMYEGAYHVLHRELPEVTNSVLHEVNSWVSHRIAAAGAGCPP

Take `CC(=O)Nc1ccn(C(=O)N2CCN(Cc3ccc(Cl)cc3OC3(C(=O)O)CC3)CC2)n1` [Example 4, 1-(2-((4-(3-acetamido-1H-pyrazole-1-carbonyl)piperazin-1-yl)methyl)-5-chlorophenoxy)cyclopropane-1-carboxylic acid]: the inhibition at 1 µM at MAGL [1] was more than 75%; at FAAH [2], 0 to 25%; at MAGL [3], more than 75%; on FAAH [4], 0 to 25%. In addition, the “MAGL % inh. 5 mg/kg (mouse)” value at MAGL [5] was “D (% inhibition is greater than or equal to 0% and less than 25%)”. The “FAAH % inh. 5 mg/kg (mouse)” value at FAAH [6] was “D (% inhibition is greater than or equal to 0% and less than 25%)”.

One may read the IC50 as the concentration that gives 50% inhibition. Take `C[C@@H](c1ccc(Cl)c(N2CCC(F)CC2)c1)N1CCN(C(=O)n2ccc(NS(C)(=O)=O)n2)CC1` [Example 11, (S)—N-(1-(4-(1-(4-chloro-3-(4-fluoropiperidin-1-yl)phenyl)ethyl)piperazine-1-carbonyl)-1H-pyrazol-3-yl)methanesulfonamide]: the inhibition at 1 µM on MAGL [1] was more than 75%; at FAAH [2], 0 to 25%; on MAGL [3] it was more than 75%; at FAAH [4], 0 to 25%. Moreover, the IC50 on MAGL [3] is less than 0.1 µM; on FAAH [4], 1 to 10 µM. For the same compound, the “MAGL % inh. 5 mg/kg (mouse)” value at MAGL [5] is “C (% inhibition is greater than or equal to 25% and less than 50%)”. In addition, the “FAAH % inh. 5 mg/kg (mouse)” value at FAAH [6] was “D (% inhibition is greater than or equal to 0% and less than 25%)”.

As to `CS(=O)(=O)Nc1ccn(C(=O)N2CCN(Cc3ccc(Cl)c(N4CCCC45CC5)c3)CC2)n1` [Example 12, N-(1-(4-(4-chloro-3-(4-azaspiro[2.4]heptan-4-yl)benzyl)piperazine-1-carbonyl)-1H-pyrazol-3-yl)methanesulfonamide], the inhibition at 1 µM on MAGL [1] is more than 75%; at FAAH [2], 0 to 25%; at MAGL [3] it was more than 75%; at FAAH [4], 0 to 25%. In addition, the “MAGL % inh. 5 mg/kg (mouse)” value at MAGL [5] is “D (% inhibition is greater than or equal to 0% and less than 25%)”. Moreover, on FAAH [6], the “FAAH % inh. 5 mg/kg (mouse)” value was “D (% inhibition is greater than or equal to 0% and less than 25%)”.

Turning to `CC(=O)Nc1ccn(C(=O)N2CCC3(CCCN3Cc3cc4cc(C(N)=O)ccc4[nH]3)CC2)n1` [Example 14, 2-((8-(3-acetamido-1H-pyrazole-1-carbonyl)-1,8-diazaspiro[4.5]decan-1-yl)methyl)-1H-indole-5-carboxamide], the inhibition at 1 µM on MAGL [1] is 50 to 75%; at FAAH [2], 0 to 25%; at MAGL [3] it was more than 75%; on FAAH [4], 0 to 25%. In addition, the half-maximal inhibitory concentration (IC50) on MAGL [3] was less than 0.1 µM; at FAAH [4], 1 to 10 µM. Besides, the “MAGL % inh. 5 mg/kg (mouse)” value on MAGL [5] is “D (% inhibition is greater than or equal to 0% and less than 25%)”. For the same compound, the “FAAH % inh. 5 mg/kg (mouse)” value at FAAH [6] is “D (% inhibition is greater than or equal to 0% and less than 25%)”.

For `CC(=O)Nc1ccn(C(=O)N2CCN(Cc3ccc(N4CC5COCC5C4)cc3C(F)(F)F)CC2)n1` (stereo not shown) [Example 22, N-(1-(4-(4-(tetrahydro-1H-furo[3,4-c]pyrrol-5(3H)-yl)-2-(trifluoromethyl)benzyl)piperazine-1-carbonyl)-1H-pyrazol-3-yl)acetamide], the inhibition at 1 µM on MAGL [1] was more than 75%; on FAAH [2], more than 75%; at MAGL [3], more than 75%; on FAAH [4], 50 to 75%. The IC50 at MAGL [3] is less than 0.1 µM; at FAAH [4], 0.1 to 1 µM. Also, at MAGL [5], the “MAGL % inh. 5 mg/kg (mouse)” value is “C (% inhibition is greater than or equal to 25% and less than 50%)”. Besides, the “FAAH % inh. 5 mg/kg (mouse)” value at FAAH [6] is “C (% inhibition is greater than or equal to 25% and less than 50%)”.

With `C[C@@H]1CN(C(=O)n2ccc(NS(C)(=O)=O)n2)CCN1Cc1ccc(C(F)(F)F)c(N2CC3COCC3C2)c1` (stereo partly drawn) [Example 182, N-(1-((3R)-3-Methyl-4-(3-(tetrahydro-1H-furo[3,4-c]pyrrol-5(3H)-yl)-4-(trifluoromethyl)benzyl)piperazine-1-carbonyl)-1H-pyrazol-3-yl)methanesulfonamide], the inhibition at 1 µM at MAGL [1] was more than 75%. Further, on MAGL [3], the inhibition at 1 µM was more than 75% and the half-inhibitory concentration (IC50) is less than 0.1 µM. Further, the “MAGL % inh. 5 mg/kg (mouse)” value at MAGL [5] was “D (% inhibition is greater than or equal to 0% and less than 25%)”.

For `C[C@H]1CN(C(=O)n2ccc(NS(C)(=O)=O)n2)CCN1Cc1ccc(C(F)(F)F)c(N2CCC(C(F)(F)F)CC2)c1` [Example 185, (S)-N-(1-(3-Methyl-4-(4-(trifluoromethyl)-3-(4-(trifluoromethyl)piperidin-1-yl)benzyl)piperazine-1-carbonyl)-1H-pyrazol-3-yl)methanesulfonamide], the inhibition at 1 µM at MAGL [1] and at MAGL [3] was more than 75% each time. The “MAGL % inh. 5 mg/kg (mouse)” value on MAGL [5] is given as “A (% inhibition is greater than or equal to 75%)”.

With `C[C@H]1CN(C(=O)n2ccc(NS(C)(=O)=O)n2)CCN1Cc1ccc(Cl)c(N2CCC(F)(F)CC2)c1` [Example 186, (S)-N-(1-(4-(4-Chloro-3-(4,4-difluoropiperidin-1-yl)benzyl)-3-methylpiperazine-1-carbonyl)-1H-pyrazol-3-yl)methanesulfonamide], the inhibition at 1 µM on MAGL [1] and at MAGL [3] was more than 75% throughout. Besides, the “MAGL % inh. 5 mg/kg (mouse)” value at MAGL [5] is given as “A (% inhibition is greater than or equal to 75%)”.

`C[C@H]1CN(C(=O)n2ccc(NS(C)(=O)=O)n2)CCN1Cc1ccc(Cl)c(N2CCC(C(F)(F)F)CC2)c1` [Example 188, (S)-N-(1-(4-(4-Chloro-3-(4-(trifluoromethyl)piperidin-1-yl)benzyl)-3-methylpiperazine-1-carbonyl)-1H-pyrazol-3-yl)methanesulfonamide]: the inhibition at 1 µM at MAGL [1] and at MAGL [3] was more than 75% in each case. Besides, the “MAGL % inh. 5 mg/kg (mouse)” value at MAGL [5] is reported as “A (% inhibition is greater than or equal to 75%)”.

As to `C[C@H]1CN(C(=O)n2ccc(NS(C)(=O)=O)n2)CCN1Cc1ccc(Cl)c(N2CC[C@H](F)C2)c1` [Example 189, N-(1-((S)-4-(4-Chloro-3-((S)-3-fluoropyrrolidin-1-yl)benzyl)-3-methylpiperazine-1-carbonyl)-1H-pyrazol-3-yl)methanesulfonamide], the inhibition at 1 µM on MAGL [1] and at MAGL [3] was more than 75% each time. Also, the “MAGL % inh. 5 mg/kg (mouse)” value on MAGL [5] is “A (% inhibition is greater than or equal to 75%)”.

Consider `CC(C)N1CCN(c2cc(CN3CCN(C(=O)n4ccc(NS(C)(=O)=O)n4)C[C@@H]3C)ccc2Cl)CC1=O` [Example 190, (S)-N-(1-(4-(4-Chloro-3-(4-isopropyl-3-oxopiperazin-1-yl)benzyl)-3-methylpiperazine-1-carbonyl)-1H-pyrazol-3-yl)methanesulfonamide], for which the inhibition at 1 µM at MAGL [1] and at MAGL [3] was more than 75% each time. Besides, the “MAGL % inh. 5 mg/kg (mouse)” value on MAGL [5] is “D (% inhibition is greater than or equal to 0% and less than 25%)”.

For `CN(Cc1ccc(Cl)cc1N1CC2COCC2C1)C1(C)CCN(C(=O)n2ccc(NS(C)(=O)=O)n2)CC1` (stereo not shown) [Example 197, N-(1-(4-((4-Chloro-2-(tetrahydro-1H-furo[3,4-c]pyrrol-5(3H)-yl)benzyl)(methyl)amino)-4-methylpiperidine-1-carbonyl)-1H-pyrazol-3-yl)methanesulfonamide], the inhibition at 1 µM at MAGL [1] and at MAGL [3] was more than 75% each time. Also, the “MAGL % inh. 5 mg/kg (mouse)” value at MAGL [5] was “D (% inhibition is greater than or equal to 0% and less than 25%)”.
